Data reported in patent US7223784B2, “Compounds for the modulation of the glycolysis enzyme and/or transaminase complex” (ScheBo® Biotech AG, priority 2002, dated 2007).

Key:
[1] = target: cytosolic isoenzyme of the GOT (Homo sapiens, UniProt P17174); assay: Effect on activity of GOT isoenzymes in vitro (isoenzymes dissociated by isoelectric focusing), cytosolic isoenzyme; format: biochemical; details: FIG. 1b
Source text: (§1) In FIG. 1b is shown the effect of […] (AOA) and hydroxylamine (HA) on the activity of the cytosolic and mitochondrial isoenzyme of the GOT in vitro. The isoenzymes of the GOT were dissociated by an isoelectric focusing. […] The inhibition of the GOT leads to an inhibition of the malate-aspartate shuttle. As a consequence, NAD cannot be recycled, and the glycolysis is inhibited at the stage of the GAPDH.

[2] = target: T1, mitochondrial isoenzyme of the GOT (Homo sapiens, UniProt P00505); assay: Effect on activity of GOT isoenzymes in vitro (isoenzymes dissociated by isoelectric focusing), mitochondrial isoenzyme; format: biochemical; details: FIG. 1b
T1 sequence (P00505 30-430): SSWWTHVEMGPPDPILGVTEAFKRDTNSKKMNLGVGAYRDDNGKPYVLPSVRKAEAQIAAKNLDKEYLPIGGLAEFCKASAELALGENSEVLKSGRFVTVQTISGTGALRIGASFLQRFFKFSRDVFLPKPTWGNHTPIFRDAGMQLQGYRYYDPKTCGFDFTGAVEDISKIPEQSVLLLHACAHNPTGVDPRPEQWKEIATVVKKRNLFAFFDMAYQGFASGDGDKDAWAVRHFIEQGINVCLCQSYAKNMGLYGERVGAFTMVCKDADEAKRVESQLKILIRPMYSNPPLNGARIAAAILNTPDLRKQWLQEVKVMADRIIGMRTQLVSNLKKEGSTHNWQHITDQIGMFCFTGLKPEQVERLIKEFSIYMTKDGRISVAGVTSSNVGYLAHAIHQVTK
Source text: as §1

Sequence of cytosolic isoenzyme of the GOT (P17174 whole entry): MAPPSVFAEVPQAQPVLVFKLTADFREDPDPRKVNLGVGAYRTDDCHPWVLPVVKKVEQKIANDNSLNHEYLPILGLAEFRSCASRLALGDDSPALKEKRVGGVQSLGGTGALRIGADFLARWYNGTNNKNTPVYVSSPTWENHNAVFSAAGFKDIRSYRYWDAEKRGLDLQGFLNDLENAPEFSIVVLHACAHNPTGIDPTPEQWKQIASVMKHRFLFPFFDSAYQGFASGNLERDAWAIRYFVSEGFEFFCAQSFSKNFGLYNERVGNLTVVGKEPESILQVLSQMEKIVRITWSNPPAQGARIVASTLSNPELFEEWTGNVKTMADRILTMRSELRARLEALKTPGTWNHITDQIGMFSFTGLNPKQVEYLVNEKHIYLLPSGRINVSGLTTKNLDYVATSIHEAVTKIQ

Structure (SMILES) | effect on the activity of the cytosolic isoenzyme of the GOT [1] | effect on the activity of the mitochondrial isoenzyme of the GOT [2]
NOCC(=O)O [aminooxyacetate, (aminooxy)acetic acid] | mainly inhibits the cytosolic isoenzyme | 
NO [hydroxylamine] | inhibits both isoenzymes | inhibits both isoenzymes
